Assay results from the NIST ThermoML archive (doi:10.1016/j.jct.2011.11.014).

Assay: mn = molality of the nth substance listed, in mol/kg
Details: 101.3 kPa, Liquid; for speed of sound: Sing-around technique in a fixed-path interferometer; for mass density: Vibrating tube method

CCOC(=O)CC(=O)[O-].[K+] [potassium 3-ethoxy-3-oxopropanoate] + O
Details | mass density [kg/m3] | speed of sound [m/s]
288.15 K, m1 = 0.0116 | 999.92 | 1468.2
288.15 K, m1 = 0.0175 | 1000.34 | 1469
288.15 K, m1 = 0.0352 | 1001.57 | 1471.2
288.15 K, m1 = 0.0453 | 1002.29 | 1472.6
288.15 K, m1 = 0.0579 | 1003.14 | 1474.2
288.15 K, m1 = 0.1204 | 1007.45 | 1482.2
288.15 K, m1 = 0.18 | 1011.47 | 1489.7
288.15 K, m1 = 0.2369 | 1015.22 | 1496.6
288.15 K, m1 = 0.3076 | 1019.83 | 1505.1
293.15 K, m1 = 0.0116 | 999.013 | 1484.1
293.15 K, m1 = 0.0175 | 999.423 | 1484.9
293.15 K, m1 = 0.0352 | 1000.64 | 1487
293.15 K, m1 = 0.0453 | 1001.35 | 1488.3
293.15 K, m1 = 0.0579 | 1002.19 | 1489.8
293.15 K, m1 = 0.1204 | 1006.44 | 1497.2
293.15 K, m1 = 0.18 | 1010.41 | 1504.2
293.15 K, m1 = 0.2369 | 1014.11 | 1510.6
293.15 K, m1 = 0.3076 | 1018.65 | 1518.7
298.15 K, m1 = 0.0116 | 997.84 | 1498.2
298.15 K, m1 = 0.0175 | 998.247 | 1499
298.15 K, m1 = 0.0352 | 999.442 | 1500.9
298.15 K, m1 = 0.0453 | 1000.15 | 1502.1
298.15 K, m1 = 0.0579 | 1000.98 | 1503.5
298.15 K, m1 = 0.1204 | 1005.18 | 1510.4
298.15 K, m1 = 0.18 | 1009.1 | 1516.9
298.15 K, m1 = 0.2369 | 1012.76 | 1523
298.15 K, m1 = 0.3076 | 1017.25 | 1530.5
303.15 K, m1 = 0.0116 | 996.433 | 1510.5
303.15 K, m1 = 0.0175 | 996.835 | 1511.2
303.15 K, m1 = 0.0352 | 998.02 | 1513
303.15 K, m1 = 0.0453 | 998.716 | 1514.1
303.15 K, m1 = 0.0579 | 999.538 | 1515.4
303.15 K, m1 = 0.1204 | 1003.7 | 1521.9
303.15 K, m1 = 0.18 | 1007.58 | 1528
303.15 K, m1 = 0.2369 | 1011.19 | 1533.6
303.15 K, m1 = 0.3076 | 1015.64 | 1540.6
308.15 K, m1 = 0.0116 | 994.811 | 1521
308.15 K, m1 = 0.0175 | 995.206 | 1521.7
308.15 K, m1 = 0.0352 | 996.379 | 1523.4
308.15 K, m1 = 0.0453 | 997.071 | 1524.4
308.15 K, m1 = 0.0579 | 997.885 | 1525.7
308.15 K, m1 = 0.1204 | 1002 | 1531.8
308.15 K, m1 = 0.18 | 1005.85 | 1537.4
308.15 K, m1 = 0.2369 | 1009.43 | 1542.7
308.15 K, m1 = 0.3076 | 1013.83 | 1549.1
313.15 K, m1 = 0.0116 | 992.986 | 1530
313.15 K, m1 = 0.0175 | 993.379 | 1530.7
313.15 K, m1 = 0.0352 | 994.542 | 1532.2
313.15 K, m1 = 0.0453 | 995.228 | 1533.2
313.15 K, m1 = 0.0579 | 996.034 | 1534.4
313.15 K, m1 = 0.1204 | 1000.12 | 1540.1
313.15 K, m1 = 0.18 | 1003.93 | 1545.4
313.15 K, m1 = 0.2369 | 1007.47 | 1550.3
313.15 K, m1 = 0.3076 | 1011.84 | 1556.3
